According to patent US4782073A, “Amides of [(5,6-dichloro-3-oxo-9-alpha-substituted-2,3,9,9-alpha-tetrahydrofluoren -7-yl-oxyl]acetic acids, and pharmaceutical compositions thereof” (Merck & Co., Inc., priority 1986, dated 1988):

How the values were obtained:
[1] = pKa; assay type: physicochemical; details: read-out: pV-a
[2] = Distribution between octanol and aqueous buffer at pH 7.4; assay type: physicochemical
Description: a. Distribution between octanol and aqueous buffer at pH = 7.4 were
determined as described by R. A. Sherrer and S. M. Howard, J. Med. Chem.

[3] = Protein binding (bovine serum albumin); assay type: in vitro ADME; details: 4 × 10^-4 M bovine serum albumin
Text: b. % Bound using 4 × 10^-4 M bovine serum albumin.

[4] = tested on: cat cerebrocortical tissue slices; assay: in vitro cat cerebrocortical tissue slice assay (inhibition of HCO3- stimulated swelling); assay type: cell-based; details: Felis catus, 1 h, compounds dissolved as sodium salts, 60 min incubation at 37° C, read-out: I50, concentration giving 50% inhibition of swelling
Text: The (1) in vitro cat cerebrocortical tissue slice assay, (2) the in vitro primary rat astrocyte culture assay and (3) the in vivo cat head injury assay. The first assay, the in vitro cat cerebrocortical tissue slice assay has been described by Marshall, L. F.; Shapiro, H. M.; Smith, R. W. In "Seminars in Neurological Surgery: Neural Trauma"; Popp, A. J.; Bourke, R. S.; Nelson, L. R.; Kimelberg, H, K,. Eds.; Raven Press: New York, 1979; p 347, by Bourke, R. S.; Kimelberg, H, K.; Daze, M. A. in Brain Res. 1978, 154, 196, and by Bourke, R. S.; Kimelberg, H. K,; Nelson, L. R. in Brain Res. 1976, 105, 309. This method constitutes a rapid and accurate method of determining the intrinsic chloride inhibitory properties of the compounds of the invention in the target tissue.
Using the in vitro cat cerebrocortical tissue slice assay, described in Example 1, compounds of the present invention can be tested for activity. This test provides the principal in vitro evaluation and consists of a determination of concentration vs. response curve. […]
Following the 60 minute incubation period, tissue slices were separated from incubation medium by filtration, reweighed, and homogenized in 1 N HClO4 (10% w/v) for electrolyte analysis. […] Control slice swelling is expressed as microliters per gram initial preswelling fresh weight. […]

[5] = tested on: astroglial edema; details: in vitro assay, J. Med. Chem. 25, 567 (1982); cited from earlier work
[6] = tested on: animals receiving experimental in vivo head injury; details: in vivo head injury assay, J. Med. Chem. 25, 567 (1982); cited from earlier work
[7] = tested on: clinical cases of head injury; details: J. Med. Chem. 25, 567 (1982); cited from earlier work

Compound `CCC[C@]12CCC(=O)C=C1c1c(cc(OCC(=O)N[C@H](C(=O)O)C(C)C)c(Cl)c1Cl)C2` has a pKa [1] of 4.6, a logD [2] of 2 and a fraction unbound [3] of 0.03.
For `CCC[C@]12CCC(=O)C=C1c1c(cc(OCC(=O)N[C@@H](Cc3ccccc3)C(=O)O)c(Cl)c1Cl)C2`, the pKa [1] was 4.58, the logD [2] was 2 and the fraction unbound [3] was 0.057.
`CCC[C@]12CCC(=O)C=C1c1c(cc(OCC(=O)N[C@@H](Cc3ccc(O)cc3)C(=O)O)c(Cl)c1Cl)C2` gave a pKa [1] of 4.12, a logD [2] of 1.99 and a fraction unbound [3] of 0.022.
Compound `CCC[C@]12CCC(=O)C=C1c1c(cc(OCC(=O)N[C@@H](CO)C(=O)O)c(Cl)c1Cl)C2` has a pKa [1] of 4.1, a logD [2] of 1.91 and a fraction unbound [3] of 0.024.
`CCC[C@]12CCC(=O)C=C1c1c(cc(OCC(=O)N[C@@H](Cc3c[nH]cn3)C(=O)O)c(Cl)c1Cl)C2` showed a pKa [1] of 6.9, a logD [2] of 1.95 and a fraction unbound [3] of 0.079.
With `CCC[C@]12CCC(=O)C=C1c1c(cc(OCC(=O)Nc3nnn[nH]3)c(Cl)c1Cl)C2` the pKa [1] was 3.78, the logD [2] was 1.96 and the fraction unbound [3] was 0.019.
In the case of `CCC[C@]12CCC(=O)C=C1c1c(cc(OCC(=O)NS(C)(=O)=O)c(Cl)c1Cl)C2` [Example 4, R(+)-N-Methylsulfonyl-[(5,6-dichloro-3-oxo-9a-propyl-2,3,9,9a-tetrahydro-1H-fluoren-7-yl)oxy]acetamide], the IC50 [4] is reported as 20 nM, the pKa [1] is reported as 4.25 and the logD [2] is reported as 1.97. For the same compound, the fraction unbound [3] was 0.028.
`CCC[C@]12CCC(=O)C=C1c1c(cc(OCC(=O)NC#N)c(Cl)c1Cl)C2` [Example 5, R(+)-N-Cyano-[(5,6-dichloro-3-oxo-9a-propyl-2,3,9,9a-tetrahydro-1H-fluoren-77-yl)oxy]acetamide] gave a pKa [1] of 3.65, a logD [2] of 1.99 and a fraction unbound [3] of 0.016.
For `CCC[C@]12CCC(=O)C=C1c1c(cc(OCC(=O)NS(=O)(=O)CC)c(Cl)c1Cl)C2` [SO2 C2 H5], the IC50 [4] was 10 nM, the pKa [1] was 4.1 and the logD [2] was 1.99.
For `C=C(CC)C(=O)c1ccc(OCC(=O)O)c(Cl)c1Cl` [ethacrynic acid], the activity in vitro [5] is listed as “exhibited activity”, the activity in vivo [6] is listed as “exhibited activity” and the “reduction of mortality in clinical cases of head injury” value [7] is listed as “effective in reducing mortality”.
